What was measured:
[1] = target: BRD4(BD1) (Homo sapiens (Human), UniProt O60885); assay: In vitro enzyme inhibition assay (BRD4 AlphaScreen); format: binding
How it was run: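 AlphaScreen proximity readout, using streptavidin donor and Ni-chelate acceptor beads at 5 μg/mL final, monitors biotin-H4 tetraacetylated peptide interaction with purified His-tagged BRD4.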

[2] = system: Raji, human Burkitts lymphoma cells; assay: Cell-MTS proliferation assay, Raji; format: cell-based; settings: Homo sapiens, 168 hr
How it was run: (§1)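 Cells were seeded per 96-well at densities giving ~90% confluence by day 7 (Raji 15,000, HL-60 5,000, NCI-H460 3,000) and dosed 24 hr later with an 11-point dilution, 100 μM to 2.0 nM final. Seven-day MTS colorimetric read at OD490; IC50 from background-subtracted, DMSO-normalised values.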

[3] = system: HL-60, human proleukemia cells; assay: Cell-MTS proliferation assay, HL-60; format: cell-based; settings: Homo sapiens, 168 hr
How it was run: as §1

[4] = system: NCI-H460, human non-small cell lung cancer cells; assay: Cell-MTS proliferation assay, NCI-H460; format: cell-based; settings: Homo sapiens, 168 hr
How it was run: as §1

[5] = in vitro enzyme inhibition assay
[6] = NCI-H460, Cell-MTS proliferation
[7] = Raji, Cell-MTS, class symbols A/B/C
[8] = HL-60, Cell-MTS, class symbols A/B/C
[9] = NCI-H460, Cell-MTS, class symbols A/B/C
[10] = Cell-MTS proliferation, Raji cells
[11] = Cell-MTS proliferation, HL-60 cells
[12] = Cell-MTS proliferation, NCI-H460 cells

| Compound | IC50 [1, 5] [nM] | IC50 ([2]; Raji, Cell-MTS proliferation) [nM] | IC50 ([3]; HL-60, Cell-MTS proliferation) [nM] | IC50 [4, 6] [nM] | IC50 ([1]; class symbols A/B/C) [nM] | IC50 [2, 7] [nM] | IC50 [3, 8] [nM] | IC50 [4, 9] [nM] | IC50 [2, 10] [nM] | IC50 [3, 11] [nM] | IC50 [4, 12] [nM] |
| --- | --- | --- | --- | --- | --- | --- | --- | --- | --- | --- | --- |
| CCS(=O)(=O)Nc1ccc(Oc2ccc(F)cc2F)c(-c2cn(C)c(=O)c3ncoc23)c1 [Example 240, N-[4-(2,4-difluorophenoxy)-3-(5-methyl-4-oxo-[1,3]oxazolo[4,5-c]pyridin-7-yl)phenyl]ethanesulfonamide] | < 500 | < 500 | < 500 | > 5000 |  |  |  |  |  |  |  |
| Cn1cc(-c2cc(S(C)(=O)=O)ccc2NC2CCOCC2)c2ccccc2c1=O [Example 191, 2-methyl-4-[5-methylsulfonyl-2-(oxan-4-ylamino)phenyl]isoquinolin-1-one] | < 500 | < 500 | < 500 | > 5000 |  |  |  |  |  |  |  |
| CCS(=O)(=O)c1ccc(OCC2CC2)c(-c2cn(C)c(=O)c3ccccc23)c1 [Example 135, 4-[2-(cyclopropylmethoxy)-5-ethylsulfonylphenyl]-2-methylisoquinolin-1-one] |  |  |  |  | < 500 | < 500 | < 500 | 500 to 5000 |  |  |  |
| Cc1cc(-c2nc(NS(C)(=O)=O)ncc2OCC2CC2)cn(C)c1=O [Example 153, N-[5-(cyclopropylmethoxy)-4-(1,5-dimethyl-6-oxopyridin-3-yl)pyrimidin-2-yl]methanesulfonamide] | < 500 | 500 to 5000 | 500 to 5000 | > 5000 |  |  |  |  |  |  |  |
| Cn1cc(-c2ncc3c(=O)n(C)cc(-c4cc(S(C)(=O)=O)ccc4OCC4CC4)c3n2)cn1 [Example 224, 8-[2-(cyclopropylmethoxy)-5-methylsulfonylphenyl]-6-methyl-2-(1-methylpyrazol-4-yl)pyrido[4,3-d]pyrimidin-5-one] | < 500 | < 500 | < 500 | > 5000 |  |  |  |  |  |  |  |
| Cn1cc(-c2cc(S(C)(=O)=O)ccc2OCC2CC2)c2ccccc2c1=O [Example 89, 4-[2-(cyclopropylmethoxy)-5-methylsulfonylphenyl]-2-methylisoquinolin-1-one] |  |  |  |  | < 500 | < 500 | < 500 | > 5000 |  |  |  |
| Cn1cc(-c2cc(S(C)(=O)=O)ccc2NCC2CC2)c2c(c1=O)CCCC2 [Example 223, 4-[2-(cyclopropylmethylamino)-5-methylsulfonylphenyl]-2-methyl-5,6,7,8-tetrahydroisoquinolin-1-one] | < 500 | 500 to 5000 | < 500 | > 5000 |  |  |  |  |  |  |  |
| CCN(c1ncc(OCC2CC2)c(-c2cn(C)c(=O)c3ccccc23)n1)S(C)(=O)=O [Example 161, N-[5-(cyclopropylmethoxy)-4-(2-methyl-1-oxoisoquinolin-4-yl)pyrimidin-2-yl]-N-ethylmethanesulfonamide] | < 500 | < 500 | < 500 | > 5000 |  |  |  |  |  |  |  |
| CCS(=O)(=O)Nc1ccc(Oc2ccc(F)cc2F)c(-c2cn(C)c(=O)c3oc(C)cc23)c1 [Example 269, N-[4-(2,4-difluorophenoxy)-3-(2,6-dimethyl-7-oxofuro[2,3-c]pyridin-4-yl)phenyl]ethanesulfonamide] | < 500 | < 500 | < 500 | > 5000 |  |  |  |  |  |  |  |
| Cn1cc(-c2cc(S(C)(=O)=O)ccc2O[C@H]2CC[C@H](O)CC2)c2ccccc2c1=O [Example 180, 4-[2-(trans-4-hydroxycyclohexyl)oxy-5-methylsulfonylphenyl]-2-methylisoquinolin-1-one] | < 500 | < 500 | < 500 | > 5000 |  |  |  |  |  |  |  |
| COc1cc(-c2nc(S(C)(=O)=O)ncc2Oc2ccc(F)cc2F)cn(C)c1=O [Example 150, 5-[5-(2,4-difluorophenoxy)-2-methylsulfonylpyrimidin-4-yl]-3-methoxy-1-methylpyridin-2-one] | < 500 | 500 to 5000 | 500 to 5000 | > 5000 |  |  |  |  |  |  |  |
| Cc1cc(-c2cc(S(C)(=O)=O)ccc2OCC2CC2)nn(C)c1=O [Example 136, 6-[2-(cyclopropylmethoxy)-5-methylsulfonylphenyl]-2,4-dimethylpyridazin-3-one] |  |  |  |  | 500 to 5000 | > 5000 | 500 to 5000 | > 5000 |  |  |  |
| Cn1cc(-c2cc(S(C)(=O)=O)ccc2O[C@H]2CC[C@H](O)CC2)c2ccc(F)cc2c1=O [Example 187, 7-fluoro-4-[2-(trans-4-hydroxycyclohexyl)oxy-5-methylsulfonylphenyl]-2-methylisoquinolin-1-one] | < 500 | < 500 | < 500 | > 5000 |  |  |  |  |  |  |  |
| CCS(=O)(=O)Nc1ccc(Oc2ccc(F)cc2F)c(-c2cn(C)c(=O)c3occc23)c1 [Example 253, N-[4-(2,4-difluorophenoxy)-3-(6-methyl-7-oxofuro[2,3-c]pyridin-4-yl)phenyl]ethanesulfonamide] | < 500 | < 500 | < 500 | > 5000 |  |  |  |  |  |  |  |
| Cn1cc(-c2cc(S(C)(=O)=O)ccc2OC2CCOC2)c2ccccc2c1=O (stereo not shown) [Example 175, 2-methyl-4-[5-methylsulfonyl-2-(oxolan-3-yloxy)phenyl]isoquinolin-1-one] | < 500 | < 500 | < 500 | > 5000 |  |  |  |  |  |  |  |

More lines, now with the values ahead:

| IC50 [1, 5] [nM] | IC50 ([2]; Raji, Cell-MTS proliferation) [nM] | IC50 ([3]; HL-60, Cell-MTS proliferation) [nM] | IC50 [4, 6] [nM] | IC50 ([1]; class symbols A/B/C) [nM] | IC50 [2, 7] [nM] | IC50 [3, 8] [nM] | IC50 [4, 9] [nM] | IC50 [2, 10] [nM] | IC50 [3, 11] [nM] | IC50 [4, 12] [nM] | Compound |
| --- | --- | --- | --- | --- | --- | --- | --- | --- | --- | --- | --- |
| < 500 | < 500 | < 500 | > 5000 |  |  |  |  |  |  |  | Cn1cc(-c2cc(NS(C)(=O)=O)ccc2Oc2ccc(F)cc2F)cc(F)c1=O [Example 271, N-[4-(2,4-difluorophenoxy)-3-(5-fluoro-1-methyl-6-oxopyridin-3-yl)phenyl]methanesulfonamide] |
| < 500 |  |  |  |  |  |  |  | 500 to 5000 | 500 to 5000 | > 5000 | Cc1cc(-c2cc(NS(C)(=O)=O)ccc2O[C@H]2CC[C@@H](O)CC2)cn(C)c1=O [Example 434, N-[3-(1,5-dimethyl-6-oxopyridin-3-yl)-4-(cis-4-hydroxycyclohexyl)oxyphenyl] methanesulfonamide] |
| < 500 |  |  |  |  |  |  |  | < 500 | < 500 | > 5000 | Cc1cc(-c2cc(NS(C)(=O)=O)ccc2OC2CCOC2)cn(C)c1=O (stereo not shown) [Example 444, N-[3-(1,5-dimethyl-6-oxopyridin-3-yl)-4-(oxolan-3-yloxy)phenyl] methanesulfonamide] |
| < 500 | 500 to 5000 | 500 to 5000 | > 5000 |  |  |  |  |  |  |  | Cc1cc(-c2cc(OCC3CC3)cc(S(C)(=O)=O)c2)cn(C)c1=O [Example 325, 5-[3-(cyclopropylmethoxy)-5-methylsulfonylphenyl]-1,3-dimethylpyridin-2-one] |
| < 500 |  |  |  |  |  |  |  | < 500 | < 500 | > 5000 | CCS(=O)(=O)c1ccc(OCC2CC2)c(-c2cn(C)c(=O)cc2C)c1 [Example 466, 5-[2-(cyclopropylmethoxy)-5-ethylsulfonylphenyl]-1,4-dimethylpyridin-2-one] |
| < 500 | < 500 | < 500 | > 5000 |  |  |  |  |  |  |  | Cn1cc(-c2cc(NS(C)(=O)=O)ccc2Oc2ccc(F)cc2F)cc(C2CC2)c1=O [Example 279, N-[3-(5-cyclopropyl-1-methyl-6-oxopyridin-3-yl)-4-(2,4-difluorophenoxy)phenyl]methanesulfonamide] |
| < 500 |  |  |  |  |  |  |  | < 500 | < 500 | > 5000 | CCS(=O)(=O)Nc1ccc(OC2CCOC2)c(-c2cc(C)c(=O)n(C)c2)c1 (stereo not shown) [Example 445, N-[3-(1,5-dimethyl-6-oxopyridin-3-yl)-4-(oxolan-3-yloxy)phenyl]ethanesulfonamide] |
| < 500 |  |  |  |  |  |  |  | 500 to 5000 | < 500 | > 5000 | CCS(=O)(=O)c1ccc(Oc2ccc(F)cc2F)c(-c2cn(C)c(=O)c3cncn23)c1 [Example 376, 5-[2-(2,4-difluorophenoxy)-5-ethylsulfonylphenyl]-7-methylimidazo[1,5-a]pyrazin-8-one] |
| 500 to 5000 | 500 to 5000 | 500 to 5000 | > 5000 |  |  |  |  |  |  |  | CCS(=O)(=O)Cc1ccc(OCC(F)(F)F)c(-c2cn(C)c(=O)c3cncn23)c1 [Example 371, 5-[5-(ethylsulfonylmethyl)-2-(2,2,2-trifluoroethoxy)phenyl]-7-methylimidazo[1,5-a]pyrazin-8-one] |
| < 500 |  |  |  |  |  |  |  | 500 to 5000 | 500 to 5000 | > 5000 | CCn1cc(-c2cc(S(C)(=O)=O)ccc2NCC2CC2)cc(C)c1=O [Example 428, 5-[2-(cyclopropylmethylamino)-5-methylsulfonylphenyl]-1-ethyl-3-methylpyridin-2-one] |
| < 500 |  |  |  |  |  |  |  | 500 to 5000 | < 500 | > 5000 | Cc1cc(-c2cc(S(C)(=O)=O)ccc2OC2CCCC2)cn(C)c1=O [Example 419, 5-(2-cyclopentyloxy-5-methylsulfonylphenyl)-1,3-dimethylpyridin-2-one] |
| < 500 |  |  |  |  |  |  |  | < 500 | < 500 | > 5000 | Cc1cc(-c2cc(S(C)(=O)=O)ccc2OC2CCC(F)(F)CC2)cn(C)c1=O [Example 415, 5-[2-(4,4-difluorocyclohexyl)oxy-5-methylsulfonylphenyl]-1,3-dimethylpyridin-2-one] |
| < 500 |  |  |  |  |  |  |  | 500 to 5000 | < 500 | > 5000 | Cn1cc(-c2cc(CS(C)(=O)=O)ccc2OCC(F)(F)F)cc(Cl)c1=O [Example 418, 3-chloro-1-methyl-5-[5-(methylsulfonylmethyl)-2-(2,2,2-trifluoroethoxy)phenyl]pyridin-2-one] |

Source: patent US10023592B2, “Bromodomain inhibitors” (Celgene Quanticel Research, Inc., priority 2013, dated 2018)
